From publication PMC7377239, “Cardiovascular Effects of Polychlorinated Biphenyls and Their Major Metabolites” (Environmental Health Perspectives, 2020)
Where a name gives a salt, the structure may show the parent alone. Read-outs that look alike come from different tables or passages of the source.

Test system: iCell cardiomyocytes (human iPSC-derived cardiomyocytes)
Experiment: Intracellular Ca2+ flux / beating parameters in iCell cardiomyocytes (FLIPR tetra), 90 min or 24 h
Format: cell-based
Conditions: Homo sapiens, Cardiomyocyte, 0.00 µM = 100.00; for activity at 0.1 µM: 0.10 µM
In short: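 Gelatin-plated iCell cardiomyocytes (5,000/well) were dye-loaded for 2 h at 37 °C, then exposed for 90 min or 24 h to PCBs/metabolites (5× plates at 0.05–500 µM; 0.5% DMSO final) in triplicate. Ca2+ flux was read for 100 s at 8 Hz and 37 °C. Peak height, frequency, spacing CV and decay/rise ratio were vehicle-normalized and fitted with a four-parameter logistic model, with POD set at 1 SD of vehicle.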

[1] = 1.5 h, read-out: cm.amp.avg.90min
[2] = 1.5 h, read-out: cm.amp.cv.90min
[3] = 1.5 h, read-out: cm.decay.rise.90min
[4] = 1.5 h, read-out: cm.spacing.cv.90min
[5] = 24 h, read-out: cm.amp.avg.24hrs
[6] = 24 h, read-out: cm.amp.cv.24hrs
[7] = 24 h, read-out: cm.decay.rise.24hrs
[8] = 24 h, read-out: cm.spacing.cv.24hrs

## O=S(=O)(O)Oc1ccc(-c2ccc(Cl)cc2)cc1 [4'-yl PCB 3 sulfate]
[1]
  activity at 0.01 µM: 91%
  activity at 0.1 µM: 100%
  activity at 1 µM: 98%
  activity at 10 µM: 93%
  activity at 100 µM: 0%
[2]
  activity at 0.01 µM: 97%
  activity at 0.1 µM: 92%
  activity at 1 µM: 75.3%
  activity at 10 µM: 105%
  activity at 100 µM: 0%
1.5 h, read-out: cm.bpm.90min
  activity at 0.01 µM: 100%
  activity at 0.1 µM: 100%
  activity at 1 µM: 100%
  activity at 10 µM: 104%
  activity at 100 µM: 0%
[3]
  activity at 0.01 µM: 100%
  activity at 0.1 µM: 98.1%
  activity at 1 µM: 95.6%
  activity at 10 µM: 97.7%
  activity at 100 µM: 0%
[4]
  activity at 0.01 µM: 138%
  activity at 0.1 µM: 107%
  activity at 1 µM: 90.9%
  activity at 10 µM: 104%
  activity at 100 µM: 0%
[5]
  activity at 0.01 µM: 114%
  activity at 0.1 µM: 46.3%
  activity at 1 µM: 68%
  activity at 10 µM: 89.3%
  activity at 100 µM: 112%
[6]
  activity at 0.01 µM: 86.7%
  activity at 0.1 µM: 44.4%
  activity at 1 µM: 33.8%
  activity at 10 µM: 96.4%
  activity at 100 µM: 68.8%
24 h, read-out: cm.bpm.24hrs
  activity at 0.01 µM: 102%
  activity at 0.1 µM: 47.7%
  activity at 1 µM: 46.8%
  activity at 10 µM: 101%
  activity at 100 µM: 79.2%
[7]
  activity at 0.01 µM: 89.3%
  activity at 0.1 µM: 52.8%
  activity at 1 µM: 51.1%
  activity at 10 µM: 105%
  activity at 100 µM: 113%
[8]
  activity at 0.01 µM: 96.8%
  activity at 0.1 µM: 48.2%
  activity at 1 µM: 55.8%
  activity at 10 µM: 108%
  activity at 100 µM: 103%

## O=C1C=CC(=O)C(c2ccc(Cl)cc2)=C1 [4-Cl-BQ, 2-(4-Chlorophenyl)benzo-2,5-quinone]
[1]
  activity at 0.01 µM: 91.7%
  activity at 0.1 µM: 92.1%
  activity at 1 µM: 92.1%
  activity at 10 µM: 101%
  activity at 100 µM: 0%
[2]
  activity at 0.01 µM: 113%
  activity at 0.1 µM: 88.6%
  activity at 1 µM: 105%
  activity at 10 µM: 118%
  activity at 100 µM: 0%
1.5 h, read-out: cm.bpm.90min
  activity at 0.01 µM: 103%
  activity at 0.1 µM: 100%
  activity at 1 µM: 95.3%
  activity at 10 µM: 124%
  activity at 100 µM: 0%
[3]
  activity at 0.01 µM: 99.5%
  activity at 0.1 µM: 96.6%
  activity at 1 µM: 107%
  activity at 10 µM: 104%
  activity at 100 µM: 0%
[4]
  activity at 0.01 µM: 135%
  activity at 0.1 µM: 99.9%
  activity at 1 µM: 104%
  activity at 10 µM: 225%
  activity at 100 µM: 0%
[5]
  activity at 0.01 µM: 112%
  activity at 0.1 µM: 97.3%
  activity at 1 µM: 105%
  activity at 10 µM: 45.5%
  activity at 100 µM: 0%
[6]
  activity at 0.01 µM: 125%
  activity at 0.1 µM: 130%
  activity at 1 µM: 96.8%
  activity at 10 µM: 56.6%
  activity at 100 µM: 0%
24 h, read-out: cm.bpm.24hrs
  activity at 0.01 µM: 101%
  activity at 0.1 µM: 100%
  activity at 1 µM: 93.6%
  activity at 10 µM: 64.9%
  activity at 100 µM: 0%
[7]
  activity at 0.01 µM: 85.3%
  activity at 0.1 µM: 96.8%
  activity at 1 µM: 103%
  activity at 10 µM: 72.1%
  activity at 100 µM: 0%
[8]
  activity at 0.01 µM: 104%
  activity at 0.1 µM: 92.5%
  activity at 1 µM: 98.4%
  activity at 10 µM: 63.9%
  activity at 100 µM: 0%
